One data set deals with calmodulin (Homo sapiens, UniProt P0DP23). Kind of data set: Surface plasmon resonance (BIAcore) binding to immobilized calmodulin. Conditions: SPR, steady state affinity analysis; resynthesized, purified compound; PBST containing 4% DMF. Here is the method: Cy5 detection was chosen to avoid conflict with compound autofluorescence in the Cy3 channel. Positive hits from the microarray were retested for their ability to bind to the immobilized protein using surface plasmon resonance (SPR) spectroscopy (BIAcore). This process enables a rapid initial prioritization of positives prior to resynthesis, The initial secondary SPR screening was performed using compound (2 μL of a 1 mM DMF stock) directly from the original stock solutions used for microarray production. […] For this set, compound 5, 6, and 7 were resynthesized, purified, and their KDs with calmodulin determined by SPR using steady state affinity analysis.
Tetracycle 7: ^1H NMR (500 MHz, CDCl3) δ 6.95 (d, J=8.5 Hz, 2H), 6.87 (m, 4H), 6.71 (d, J=8.0 Hz, 2H), 6.55 (q, J=1.5 Hz, 1H), 6.04 (m, 1H), 4.93 (s, 1H), 4.68 (s, 1H), 3.84 (t, J=5.0 Hz, 4H), 3.34 (dd, J=17.0, 2.5 Hz, 1H), 3.28 (m, 2H), 3.16 (t, J=5.0 Hz, 4H), 3.02 (m, 1H), 2.94 (dd, J=15.0, 7.0 Hz, 1H), 2.54 (dd, J=17.5, 8.5 Hz, 1H), 2.36 (ddd J=15.5, 6.5, 3.5 Hz, 1H), 2.05 (d, J=1.5 Hz, 3H); ^13C NMR (125 MHz, CDCl3) δ 186.4, 186.1, 178.8, 177.1, 154.4, 151.2, 146.0, 143.4, 140.8, 139.5, 132.6, 132.5, 128.2, 127.1, 123.1, 122.7, 115.6, 115.5, 66.7, 48.7, 43.9, 42.6, 39.1, 32.4, 24.5, 24.1, 16.1; FT-IR (thin film) 3411, 2961, 2907, 2852, 1699, 1690, 1649, 1611, 1513, 1441, 1381, 1261, 1234, 1173, 1113, 922, 818, 730 cm^−1; HRMS (TOF ES) calcd for C33H31N2O6, 551.2182 m/z (M+H)^+; observed 551.2186 (0.8 ppm error). BIAcore Experiments Immobilization. In all experiments, calmodulin (CaM) was immobilized on a carboxymethylated dextran-coated sensor chip (CM5, Biacore AB, Uppsala, Sweden) at 25° C. For protein immobilization, ‘specific flow rate’ was selected and the protein of interest was immobilized in flow cells 2 and 4. On Biacore 3000, the sensor chip was activated (7 min in flow cells 2 and 4) by addition of 0.2 M N-ethyl-N'-(3-dimethylaminopropyl) carbodiimide hydrochloride (EDC) and 0.05 M N-hydroxysuccinimide (NHS) at 20 μL/min. […]

A short description of data set [1]: Precipitation of sample in SPR binding buffer (4% DMF/PBST). The format is physicochemical. Conditions: at 125 μM. Here is the method: After the prioritization step, compounds 5, 6 and 7 were resynthesized, purified and subjected to KD determination. Samples were injected over a range of concentrations (e.g. 0.1-125 μM). The compound was prepared as a 10 mM stock solution in DMF. Serial dilutions of this stock were made and then added to the heated PBST (˜70° C., 1 min). In this analysis, a 200 μL final volume was prepared by addition of 8 μL of small molecule DMF solution into 192 μL of a heated PBST. The final concentration ranged between 0.015 μM and 125 μM. 5 and 6 precipitated at 125 μM in 4% DMF/PBST. Samples were injected in the alternation with blanks. “Flow cell 2 with 1 as a reference” was selected and each sample was analyzed in triplicate. For each experiment, a calibration for bulk differences between flow cells due to the high refractive index of DMF was performed by injecting blank samples containing a range of DMF concentrations (1, 2, 3, 3.5, 4, 4.5, 5%) in PBST under conditions otherwise identical to those used for samples of compounds 5, 6 and 7.
On the technique in general: Surface plasmon resonance follows binding to a sensor surface in real time, without labels.

The record followed here is US7932213B2, “Small molecule printing” (President and Fellows of Harvard College, priority 1999, dated 2011).

Turning to `CN(C)c1ccc(/N=N/c2ccc(N3C(=O)[C@H]4[C@H](CC=C5[C@H]4C[C@H]4C(=O)N(c6ccc(F)c(Cl)c6)C(=O)[C@@]4(C)[C@H]5c4cc(Cl)ccc4O)C3=O)cc2)cc1` [Compound 5], binding on calmodulin was characterised by a dissociation constant (Kd) of 121 ± 30 nM. Besides, the “precipitation in 4% DMF/PBST” value in data set [1] is “precipitated”.

On to `Cc1c(-c2cc(N3C(=O)[C@@H]4C[C@@H]5C(=CC[C@@H]6C(=O)N(c7ccc(/N=N/c8ccc(N(C)C)cc8)cc7)C(=O)[C@@H]65)[C@H](c5cc(Cl)ccc5O)[C@]4(C)C3=O)n(C)n2)sc2ccc(Cl)cc12` [Compound 6], for which, on calmodulin, the Kd (in general, the free concentration of one partner at which half of the binding sites on the other are occupied at equilibrium, for simple one-to-one binding) worked out at 1060 ± 90 nM. Moreover, the “precipitation in 4% DMF/PBST” value in data set [1] is recorded as “precipitated”.

`CC1=CC(=O)C2=C(C[C@@H]3C(=CC[C@@H]4C(=O)N(c5ccc(N6CCOCC6)cc5)C(=O)[C@@H]43)[C@@H]2c2ccc(O)cc2)C1=O` [Compound 7]: the Kd at calmodulin came out at 20700 ± 1000 nM.
